Measured values from patent publication US20240315947A1, “COSMETIC COMPOSITION COMPRISING MOLECULAR AGGREGATES OF BILE ACIDS OR BILE ACID SALTS” (SCAI THERAPEUTICS CO., LTD., priority 2021, published 2024).
Read-outs that look alike come from different tables or passages of the source.

Key:
[1] = test system: skin, subcutaneous tissue of the interscapular region; assay: SD rat histological analysis (H&E, Masson's trichome staining); assay type: in vivo, SD rats; settings: subcutaneous injection, 500 μL of 1%
Excerpt: The interscapular region (back of the neck near the ear) of 10-week-old SD rats (280-350 g) with sufficient subcutaneous adipose tissue was shaved and anesthetized. […].
Then, tissues (skin, subcutaneous tissue) of the interscapular region were collected, fixed, and subjected to H&E staining and Masson's trichome staining. Tissue changes were investigated through microscopic observation.

[2] = parameters: species or system SD rats; settings: rat, in vivo
Excerpt: The interscapular region (back of the neck near the ear) of 10-week-old SD rats (280-350 g) with sufficient subcutaneous adipose tissue was shaved and anesthetized.

[3] = test system: 3T3-L1 preadipocytes; assay: Preadipocyte cytotoxicity (cell counting kit-8); settings: treated for 4 hours
Protocol: 3T3-L1 preadipocytes were inoculated into a 96 well plate at 5×10^3 per well, grown in medium (high glucose DMEM, 10% bovine calf serum, 1% penicillin/streptomycin) for 16 hours. The drug was prepared to contain 0.04% and 0.08%, respectively, and then treated for 4 hours. After adding 10 μl of Dojingo CK04-11 cell counting kit-8 to each well according to the manual, reacting for 2 hours, the absorbance at 450 nm was measured with a spectrophotometer to compare preadipocyte cytotoxicity.

| tissue findings at section creation (Masson's trichome staining) [1] | amount of DCA in the subcutaneous tissue [2] | amount of DCA in the subcutaneous tissue ([2]; sc) | Compound | tissue damage (H&E staining) [1] | preadipocyte cytotoxicity (comparison between test materials) ([3]; 0.04%) | survival rate of preadipocytes ([3]; 0.08%) [%] |
| --- | --- | --- | --- | --- | --- | --- |
| hematoma and edema | increased over time | gradually decreased | C[C@H](CCC(=O)O)[C@H]1CC[C@H]2[C@@H]3CC[C@@H]4C[C@H](O)CC[C@]4(C)[C@H]3C[C@H](O)[C@]12C [deoxycholic acid] | severe tissue damage | – | – |
| – | – | – | Sodium deoxycholate [precursor of deoxycholic acid salt] | – | the same | 24.6 |
